“Also recorded” adds a separate entry of the source.

Common to all, as to assay type: cell-based
Series [1] deals with rat liver spheroids. Nature of the series: Intoxification of liver spheroids: spheroid damage / functional change observed. How it is done: (§1) Liver spheroids were prepared from the liver of male Wistar rats by a two-step collagenase perfusion method described by Seglen P. O. ((1976). Preparation of isolated rat liver cells. Methods Cell. Biol. 13, 29-38) and modified by Lazar, A.; Peshwa, M. V., Wu, F. J., Chi, C. M., Cerra, F. B., and Hu, W. S. (1995). Extended liver-specific functions of procirne hepatocyte spheroids entrapped in collagen gel. In Vitro Cell Biol Anim. 31, 340-346). Viability of the isolated liver cells was determined by tyrpan blue dye exclusion i.e. an aliquot of isolated liver cells was mixed with an equal volume of trypan blue dye (1.0% w/v in isotonic saline) and incubated at room temperature for a minimum period of 5 minutes. Only isolated liver cell preparations with viability above 80% were used to prepare liver spheroids. The cell suspension was diluted with culture medium (hepatocyte medium supplemented with 10% FCS, […] L-glutamine, 2 ng/ml insulin, 100 U/ml penicillin and 100 μg/ml streptomycin sulfate) to give a cell density of 5×10^5 cells/ml. The diluted cell suspension was dispersed into 6-well plates, 3 ml/well. The plates were incubated at 37° C., in a 5% CO2 incubator on a gyrotatory shaker (New Brunswick) at an initial rotation speed of 85 rpm for the first 24 hr and 77 rpm thereafter. […]

The test system of series [2] is rat liver spheroids. Nature of the series: Glutathione content of liver spheroids after GalN exposure (fluorimetric OPT method). Particulars: 24 hr exposure. As to the method: as §1, with “cells/ml.” for “cells/ml. The diluted cell suspension was dispersed into 6-well plates, 3 ml/well. The plates were incubated at 37° C., in a 5% CO2 incubator on a gyrotatory shaker (New Brunswick) at an initial rotation speed of 85 rpm for the first 24 hr and 77 rpm thereafter.”
Glutathione levels in spheroids were determined by the fluorimetric method (Hissin P. J., and Hilf (1976). A fluorimetric method for the determination of oxidised and reduced glutathione in tissues. Anal. Biochem. 74, 214-226). […] Absorbance was read on a fluorimeter at excitation wavelength 350 nm and emission wavelength 420 nm.

For series [3], the system named is rat liver spheroids. Put plainly: Albumin synthesis of liver spheroids after GalN exposure (BCG albumin kit, medium). The conditions noted are these: 24 hr exposure. How it is done:
as §1, with “ml/well.” for “ml/well. The plates were incubated at 37° C., in a 5% CO2 incubator on a gyrotatory shaker (New Brunswick) at an initial rotation speed of 85 rpm for the first 24 hr and 77 rpm thereafter.”
Albumin concentration in the medium was determined by Albumin Reagent Kit (BCG, Sigma). […] Absorbance was read on a microplate reader (Multiscan RC, Labsystems) at 630 nm.

Series [4] deals with rat liver spheroids. Put plainly: Lactate dehydrogenase (LDH) leakage of liver spheroids after GalN exposure. As to the method: as §1, with “thereafter. The plates were rotated at this speed for the duration of the study (up to 45 days, but typically 2-10 days). 1.5 ml of old medium was replaced with 2.0 ml fresh medium for each well every other day. Media exchange was carried out over the duration of the study (up to 45 days, but typically 2-10 days).” for “thereafter.”
LDH in the media was assayed using the method developed by Korzeniewski and Callewaert (Korzeniwski, C., and Callewaert, D. M. (1983). An enzyme-release assay for natural cytotoxicity. J Immun. Meth. 64, 313-320). […] The resultant absorbance at 490 mn was monitored for 15 min, at 10 sec intervals on a microplate reader (Multiscan RC, Labsystem).

Series [5] deals with rat liver spheroids. Put plainly: Urea synthesis of liver spheroids after GalN exposure (Urea Nitrogen Kit, medium). How it is done:
(§2) Liver spheroids were prepared from the liver of male Wistar rats by a two-step collagenase perfusion method described by Seglen P. O. ((1976). Preparation of isolated rat liver cells. Methods Cell. Biol. 13, 29-38) and modified by Lazar, A.; Peshwa, M. V., Wu, F. J., Chi, C. M., Cerra, F. B., and Hu, W. S. (1995). Extended liver-specific functions of procirne hepatocyte spheroids entrapped in collagen gel. In Vitro Cell Biol Anim. 31, 340-346). Viability of the isolated liver cells was determined by tyrpan blue dye exclusion i.e. an aliquot of isolated liver cells was mixed with an equal volume of trypan blue dye (1.0% w/v in isotonic saline) and incubated at room temperature for a minimum period of 5 minutes. Only isolated liver cell preparations with viability above 80% were used to prepare liver spheroids. […]
Urea concentration in the media was determined using a Urea Nitrogen Kit (Cat. 640-A, Sigma). The method was modified in order to be suitable for a 96-well plate format and assays using a microplate reader. […] Total ammonium nitrogen of each sample was determined by adding 25 μl urease solution to each well followed by 10 μl of diluted medium. […] A blue colour developed and the absorbance was read on a microplate reader (Multiscan RC, Labsystems) at 590 nm. Free non-urea nitrogen was determined by adding 25 μl PBS without urease followed by 10 μl medium. […]

Series [6] has as its system rat liver spheroids. Put plainly: Total protein content of rat liver spheroids after GalN exposure (Bradford). Particulars: 24 hr exposure, vs control. How it is done:
as §2
Spheroids were homogenized in homogenisation buffer containing NaH2PO42H2O, 2 mM; Na2HPO4, 2 mM; EDTA, 0.5 mM; and NaCl, 145 mM. Total protein was assessed according to the method developed by Bradford (1976). […] The protein content was determined by Micro Protein Kit (Sigma, Cat. No. 610-A). […] Absorbance was read on a microplate reader (Multiscan RC, Labsystem) at 595 nm.

The mark [7] stands for this setting: 0-40 mM GalN, trend over concentration.

For the molecule `N[C@H]1C(O)O[C@H](CO)[C@H](O)[C@@H]1O` (stereo partly drawn) [GalN, D-Galactosamine], the “functional change of liver spheroids” value in the series with rat liver spheroids [1] (20 mM GalN) was “caused a functional change”. The “spheroid damage / cell death” value in the series on rat liver spheroids [1] (40 mM GalN (highest concentration), 24 hr exposure) is listed as “caused acute cell death”. Further, the glutathione content result with rat liver spheroids [2] (20 mM and lower GalN) is given as “did not decrease”; in the series with rat liver spheroids [2] (40 mM GalN, p<0.05), “significantly decreased”. Further, the albumin synthesis result is “concentration-dependent decrease” in the series with rat liver spheroids [3] (setting [7]) and “decrease was significant” with rat liver spheroids [3] (40 mM GalN, vs control, p<0.05). Further, the LDH leakage result with rat liver spheroids [4] (setting [7]) is given as “concentration-dependent increase”; in the series on rat liver spheroids [4] (10 mM GalN, 24 hr, p<0.05), “significantly increased”; in the series with rat liver spheroids [4] (20 and 40 mM GalN, 4 hours after exposure, vs control, p<0.05), “significant increase”. In the series on rat liver spheroids [5] (0-40 mM GalN, 24 hr after exposure, trend over concentration), the urea synthesis entry is reported as “concentration-dependent increase”. Further, the “synthetic rates of urea” value with rat liver spheroids [5] (10 mM or higher GalN, 24 hr, vs control, p<0.05) was “significantly higher”. Moreover, the “total protein content of spheroids” value in the series with rat liver spheroids [6] (20 mM or lower GalN) is recorded as “not affected; also recorded: did not decrease”; in the series with rat liver spheroids [6] (40 mM GalN, p<0.05) it was “significantly decreased”.

The values are drawn from patent US20040091460A1, “Preparation of spheroids” (priority 2000, published 2004).
